Source: US20250018048A1, “FLUCONAZOLE-COX INHIBITOR HYBRIDS: A DUAL-ACTING CLASS OF ANTIFUNGAL AZOLES” (Ramot at Tel-Aviv University Ltd., priority 2022, published 2025)
In brackets after ≈: the same amount, converted by molar mass.

Columns and labels:
Format in all cases: cell-based
C. guilliermondii T-47 = test: MIC80 broth double-dilution assay; details: YPAD medium, 30° C., 24 h
Experimental: (§1) The antifungal activities of the 24 azole-COX inhibitor hybrids were evaluated against a panel of 16 representative strains of different species of the genus Candida. Candida species cause both superficial and systemic infections. The panel included strains of C. albicans, C. glabrata, C. parapsilosis, C. tropicalis, C. guilliermondii, C. dubliniensis, and C. auris (Table S2). To evaluate antifungal activity, the minimal inhibitory concentration 80% (MIC80) values were determined, which were defined as the lowest drug concentrations with turbidity (measured at OD600) less than or equal to that of specific 1:5 dilutions of the growth control. As controls, FLC and VOR, were tested.
(§2) C. albicans, C. glabrata, C. parapsilosis, C. guilliermondii, C. tropicalis, and C. dubliniensis MICs were determined using CLSI M27-A3 guidelines with minor modifications. Starter cultures were streaked from glycerol stock onto YPAD agar plates and grown for 24 h at 30° C. Colonies were suspended in 1 mL PBS and diluted to 1×10^−3 OD600 and then diluted 1:100 into fresh medium. Hybrids dissolved in DMSO were added to YPAD broth (32 μL stock solution in 1218 μL of YPAD broth), and serial double dilutions of hybrids in YPAD were prepared in flat-bottomed 96-well microplates (Corning) to enable testing of concentrations ranging from 64 μg/mL to 0.003 μg/mL. Control wells with yeast cells but no drug and blank wells containing only YPAD were prepared. An equal volume (100 μL) of yeast suspensions in YPAD broth was added to each well with the exceptions of the blank wells. MIC values (Tables S4-S6) were determined after 24 h at 30° C. by measuring the OD600 using a plate reader (Infinite M200 PRO, Tecan). MIC values were defined as the point at which the OD600 was reduced by >80% compared to the no-drug wells. Each concentration was tested in triplicate, and results were confirmed by two independent sets of experiments. FLC and VOR were used as control drugs.

C. albicans SC5314 = test: MIC80 broth double-dilution assay; details: YPAD medium, 30° C., 24 h
Experimental: as §1
(§3) MIC80 values were determined using the broth microdilution method over a concentration range of 0.003-64 μg/mL. Orange circles represent C. albicans strains, yellow circles represent C. glabrata strains, and green circles represent C. parapsilosis, C. tropicalis, C. dubliniensis and C. auris. Cells were grown in YPAD medium at 30° C. (For C. auris strains 37° C.) 24 h. Each concentration was tested in triplicate, and results were confirmed in at least two independent experiments.
as §2

C. dubliniensis T-99 = test: MIC80 broth double-dilution assay; details: YPAD medium, 30° C., 24 h
Experimental: as §1, §3, §2

C. tropicalis 660 = test: MIC80 broth double-dilution assay; details: YPAD medium, 30° C., 24 h
Experimental: as §1, §3, §2

[1] = test system: C. parapsilosis ATCC 22019; test: MIC80 broth double-dilution assay; details: YPAD medium, 30° C., 24 h
Experimental: as §1, §3, §2

C. albicans ATCC 24433 = test: MIC80 broth double-dilution assay; details: YPAD medium, 30° C., 24 h
Experimental: as §1, §3, §2

C. albicans P-87 = test: MIC80 broth double-dilution assay; details: YPAD medium, 30° C., 24 h
Experimental: as §1, §3, §2

C. albicans ATCC 90028 = test: MIC80 broth double-dilution assay; details: YPAD medium, 30° C., 24 h
Experimental: as §1, §3, §2

C. albicans SN152 = test: MIC80 broth double-dilution assay; details: YPAD medium, 30° C., 24 h; parent strain of the erg11ΔΔ/erg3ΔΔ mutant
Experimental: as §1, §3
(§4) The clinically used FLC and VOR act primarily by preventing ergosterol biosynthesis via inhibition of CYP51. Analysis was done to determine whether fungal growth inhibition by the hybrids required the presence of the ERG11 gene that encodes for CYP51. The antifungal activities of hybrids 1 and 5 and of FLC and VOR were determined against an erg11ΔΔ/erg3ΔΔ mutant C. albicans strain and against C. albicans SN152 from which this double knockout strain was derived (Table S2). […] Yeast growth was followed at OD600 over 48 h in 96-well plates containing serial double dilutions of the tested hybrids.
as §2

[2] = test system: C. albicans 742 (erg11ΔΔ/erg3ΔΔ mutant C. albicans strain); test: MIC80 broth double-dilution assay, strain lacking CYP51; details: YPAD medium, 30° C., 24 h; erg11ΔΔ/erg3ΔΔ mutant lacking CYP51
Experimental: as §1, §4, §2

Row | Compound | MIC80 against C. guilliermondii T-47 (C. guilliermondii T-47) | MIC80 against C. albicans SC5314 (C. albicans SC5314) | MIC80 against C. dubliniensis T-99 (C. dubliniensis T-99) | MIC80 against C. tropicalis 660 (C. tropicalis 660) | MIC80 against C. parapsilosis 22019 [1] | MIC80 against C. albicans 24433 (C. albicans ATCC 24433) | MIC80 against C. albicans P-87 (C. albicans P-87) | MIC80 against C. albicans 90028 (C. albicans ATCC 90028) | MIC80 against C. albicans SN152 (C. albicans SN152) | MIC80 against C. albicans 742 [2]
1 | CC(C)Cc1ccc([C@H](C)C(=O)NC[C@@](O)(Cn2cncn2)c2ccc(F)cc2F)cc1 [Hybrid 4] | 16 µg/mL (≈ 36.2 µM) | 1 µg/mL (≈ 2.26 µM) | 0.03 µg/mL (≈ 0.0678 µM) | >64 µg/mL | 8 µg/mL (≈ 18.1 µM) | 2 µg/mL (≈ 4.52 µM) | 0.5 µg/mL (≈ 1.13 µM) | 1 µg/mL (≈ 2.26 µM) | 1 µg/mL (≈ 2.26 µM) | >64 µg/mL
2 | C[C@@H](C(=O)NC[C@](O)(Cn1cncn1)c1ccc(F)cc1F)c1ccc(-c2ccccc2)c(F)c1 [Hybrid 6] | 2 µg/mL (≈ 4.16 µM) | 0.03 µg/mL (≈ 0.0624 µM) | 2 µg/mL (≈ 4.16 µM) | 8 µg/mL (≈ 16.6 µM) | 2 µg/mL (≈ 4.16 µM) | 0.12 µg/mL (≈ 0.25 µM) | 0.03 µg/mL (≈ 0.0624 µM) | 0.12 µg/mL (≈ 0.25 µM) | 0.06 µg/mL (≈ 0.125 µM) | >64 µg/mL
3 | C[C@@H](C(=O)NC[C@@](O)(Cn1cncn1)c1ccc(F)cc1F)c1ccc(-c2ccccc2)c(F)c1 [Hybrid 7] | 32 µg/mL (≈ 66.6 µM) | 4 µg/mL (≈ 8.32 µM) | 0.5 µg/mL (≈ 1.04 µM) | 64 µg/mL (≈ 133 µM) | 8 µg/mL (≈ 16.6 µM) | 16 µg/mL (≈ 33.3 µM) | 4 µg/mL (≈ 8.32 µM) | 8 µg/mL (≈ 16.6 µM) | 8 µg/mL (≈ 16.6 µM) | 64 µg/mL (≈ 133 µM)
4 | C[C@H](C(=O)NC[C@@](O)(Cn1cncn1)c1ccc(F)cc1F)c1ccc(-c2ccccc2)c(F)c1 [Hybrid 8] | 64 µg/mL (≈ 133 µM) | 32 µg/mL (≈ 66.6 µM) | 2 µg/mL (≈ 4.16 µM) | >64 µg/mL | 64 µg/mL (≈ 133 µM) | >64 µg/mL | 64 µg/mL (≈ 133 µM) | 64 µg/mL (≈ 133 µM) | 64 µg/mL (≈ 133 µM) | >64 µg/mL
5 | COc1ccc2cc([C@H](C)C(=O)NC[C@](O)(Cn3cncn3)c3ccc(F)cc3F)ccc2c1 [Hybrid 9] | 2 µg/mL (≈ 4.29 µM) | 0.25 µg/mL (≈ 0.536 µM) | 4 µg/mL (≈ 8.57 µM) | 2 µg/mL (≈ 4.29 µM) | 1 µg/mL (≈ 2.14 µM) | 0.5 µg/mL (≈ 1.07 µM) | 0.25 µg/mL (≈ 0.536 µM) | 0.25 µg/mL (≈ 0.536 µM) | 0.012 µg/mL (≈ 0.0257 µM) | 64 µg/mL (≈ 137 µM)
